Test results from US10821115B2, “Compounds that inhibit Mcl-1 protein” (priority 2017, dated 2020).
Like-named read-outs stand apart in the source and are kept apart here.

Key:
[1] = target: recombinant human Mcl-1 (residues 171-327) / Bim interaction (Homo sapiens (Human), UniProt Q07820); assay: biochemical; assay type: binding; settings: read-out: Mcl-1 HTRF IC50
[2] = system: human multiple myeloma cell line, OPM-2; assay: Cell viability assay (OPM-2 10 FBS), CellTiter-Glo; assay type: cell-based
Procedure, shortened: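 Steps: plate cells at 3000/well in 10% FBS growth medium, add serially diluted compound, incubate 16 h at 37 °C with 5% CO2, add detection reagent and read luminescence after 25 min. A 4-parameter logistic model gives IC50.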

[3] = TR-FRET, Mcl-1(171-327) / biotin-Bim (51-76)
[4] = Homo sapiens, OPM-2, 16 h, read-out: OPM-2 10% FBS IC50 IP, OPM-2 cells, 10% FBS, 16 h, CellTiter-Glo
[5] = read-out: OPM-2 10% FBS IC50 IP, OPM-2 cells, 10% FBS, 16 h, CellTiter-Glo

recombinant human Mcl-1 (residues 171-327) / Bim interaction, sequence (Q07820 171-327): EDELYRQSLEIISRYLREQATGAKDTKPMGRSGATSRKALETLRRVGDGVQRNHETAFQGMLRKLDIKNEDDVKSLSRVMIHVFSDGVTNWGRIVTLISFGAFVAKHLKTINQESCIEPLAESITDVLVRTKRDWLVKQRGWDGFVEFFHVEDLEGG

SMILES	IC50 [1, 3]	IC50 [2, 4]	IC50 [2, 5]	IC50 [1]
COCCN(C)S(=O)(=O)C[C@]1(O)CCC[C@H](C)[C@@H](C)S(=O)(=O)NC(=O)c2ccc3c(c2)N(C[C@@H]2CC[C@H]21)C[C@@]1(CCCc2cc(Cl)ccc21)CO3 [Example 100165, 1-((1S,3′R,6′R,7′S,11′S,12′R)-6-chloro-7′-hydroxy-11′,12′-dimethyl-13′,13′-dioxido-15′-oxo-3,4-dihydro-2H-spiro[naphthalene-1,22′-[20]oxa[13]thia[1,14]diazatetracyclo [14.7.2.0~3,6~.0~19,24~]pentacosa[16,18,24]trien]-7′-yl)-N-(2-methoxyethyl)-N-methylmethanesulfonamide]	0.455 nM	579 nM		
COCCN(C)S(=O)(=O)C[C@]1(O)CCC[C@H](C)[C@@H](C)S(=O)(=O)NC(=O)c2ccc3c(c2)N(C[C@@H]2CC[C@H]21)C[C@@]1(CCCc2cc(Cl)ccc21)CO3 [Example 100166, 1-((1S,3′R,6′R,7′S,11′S,12′R)-6-chloro-7′-hydroxy-11′,12′-dimethyl-13′,13′-dioxido-15′-oxo-3,4-dihydro-2H-spiro[naphthalene-1,22′-[20]oxa[13]thia[1,14]diazatetracyclo [14.7.2.0~3,6~.0~19,24~]pentacosa[16,18,24]trien]-7′-yl)-N-(2-methoxyethyl)-N-methylmethanesulfonamide]	1.77 nM		945 nM	
C[C@@H]1[C@@H](C)CCC[C@@](O)(CC(=O)N2CCN(C)CC2)[C@@H]2CC[C@H]2CN2C[C@@]3(CCCc4cc(Cl)ccc43)COc3ccc(cc32)C(=O)NS1(=O)=O [Example 100167, (1S,3′R,6′R,7′R,11′S,12′R)-6-chloro-7′-hydroxy-11′,12′-dimethyl-7′-(2-(4-methyl-1-piperazinyl)-2-oxoethyl)-3,4-dihydro-2H,15′H-spiro[naphthalene-1,22′-[20]oxa[13]thia[1,14]diazatetracyclo [14.7.2.0~3,6~.0~19,24~]pentacosa[16,18,24]trien]-15′-one 13′,13′-dioxide]	0.377 nM	339 nM		
C[C@@H]1[C@@H](C)CCC[C@@](O)(CS(=O)(=O)N(C)C(C)(C)C)[C@@H]2CC[C@H]2CN2C[C@@]3(CCCc4cc(Cl)ccc43)COc3ccc(cc32)C(=O)NS1(=O)=O [Example 100169, 1-((1S,3′R,6′R,7′S,11′S,12′R)-6-chloro-7′-hydroxy-11′,12′-dimethyl-13′,13′-dioxido-15′-oxo-3,4-dihydro-2H-spiro[naphthalene-1,22′-[20]oxa[13]thia[1,14]diazatetracyclo [14.7.2.0~3,6~.0~19,24~]pentacosa[16,18,24]trien]-7′-yl)-N-methyl-N-(2-methyl-2-propanyl)methanesulfonamide]	4.83 nM		2270 nM	
C[C@@H]1[C@@H](C)CCC[C@@](O)(CS(=O)(=O)N(C)C(C)(C)C)[C@@H]2CC[C@H]2CN2C[C@@]3(CCCc4cc(Cl)ccc43)COc3ccc(cc32)C(=O)NS1(=O)=O [Example 100170, 1-((1S,3′R,6′R,7′S,11′S,12′R)-6-chloro-7′-hydroxy-11′,12′-dimethyl-13′,13′-dioxido-15′-oxo-3,4-dihydro-2H-spiro[naphthalene-1,22′-[20]oxa[13]thia[1,14]diazatetracyclo [14.7.2.0~3,6~.0~19,24~]pentacosa[16,18,24]trien]-7′-yl)-N-methyl-N-(2-methyl-2-propanyl)methanesulfonamide]	12.1 nM		7820 nM	
C[C@@H]1[C@@H](C)C/C=C/[C@@](O)(CC=O)[C@@H]2CC[C@H]2CN2C[C@@]3(CCCc4cc(Cl)ccc43)COc3ccc(cc32)C(=O)NS1(=O)=O [Example 100171, ((1S,3′R,6′R,7′S,8′E,11′S,12′R)-6-chloro-7′-hydroxy-11′,12′-dimethyl-13′,13′-dioxido-15′-oxo-3,4-dihydro-2H-spiro[naphthalene-1,22′-[20]oxa[13]thia[1,14]diazatetracyclo [14.7.2.0~3,6~.0~19,24~]pentacosa[8,16,18,24]tetraen]-7′-yl)acetaldehyde]	0.578 nM	868 nM		
C[C@@H]1[C@@H](C)CCC[C@](O)(CC(=O)Nc2ccncn2)[C@@H]2CC[C@H]2CN2C[C@@]3(CCCc4cc(Cl)ccc43)COc3ccc(cc32)C(=O)NS1(=O)=O [Example 100174, 2-((1S,3′R,6′R,7′S,11′S,12′R)-6-chloro-7′-hydroxy-11′,12′-dimethyl-13′,13′-dioxido-15′-oxo-3,4-dihydro-2H-spiro[naphthalene-1,22′-[20]oxa[13]thia[1,14]diazatetracyclo [14.7.2.0~3,6~.0~19,24~]pentacosa[16,18,24]trien]-7′-yl)-N-4-pyrimidinylacetamide]	2.02 nM	1910 nM		
C[C@@H]1[C@@H](C)C/C=C/[C@](O)(CCO)[C@@H]2CC[C@H]2CN2C[C@@]3(CCCc4cc(Cl)ccc43)COc3ccc(cc32)C(=O)NS1(=O)=O [Example 100175, (1S,3′R,6′R,7′R,8′E,11′S,12′R)-6-chloro-7′-hydroxy-7′-(2-hydroxyethyl)-11′,12′-dimethyl-3,4-dihydro-2H,15′H-spiro[naphthalene-1,22′-[20]oxa[13]thia[1,14]diazatetracyclo [14.7.2.0~3,6~.0~19,24~]pentacosa[8,16,18,24]tetraen]-15′-one 13′,13′-dioxide]	0.149 nM	452 nM		
CO[C@@]1(CC(=O)N(C)C)CCC[C@H](C)[C@@H](C)S(=O)(=O)NC(=O)c2ccc3c(c2)N(C[C@@H]2CC[C@H]21)C[C@@]1(CCCc2cc(Cl)ccc21)CO3 [Example 100176, 2-((1S,3′R,6′R,7′R,11′S,12′R)-6-chloro-7′-methoxy-11′,12′-dimethyl-13′,13′-dioxido-15′-oxo-3,4-dihydro-2H-spiro[naphthalene-1,22′-[20]oxa[13]thia[1,14]diazatetracyclo [14.7.2.0~3,6~.0~19,24~]pentacosa[16,18,24]trien]-7′-yl)-N,N-dimethylacetamide]	0.48 nM	603 nM		
CO[C@@]1(CCCO)/C=C/C[C@H](C)[C@@H](C)S(=O)(=O)NC(=O)c2ccc3c(c2)N(C[C@@H]2CC[C@H]21)C[C@@]1(CCCc2cc(Cl)ccc21)CO3 [Example 100177, (1S,3′R,6′R,7′S,8′E,11′S,12′R)-6-chloro-7′-(3-hydroxypropyl)-7′-methoxy-11′,12′-dimethyl-3,4-dihydro-2H,15′H-spiro[naphthalene-1,22′-[20]oxa[13]thia[1,14]diazatetracyclo [14.7.2.0~3,6~.0~19,24~]pentacosa[8,16,18,24]tetraen]-15′-one 13′,13′-dioxide]	0.258 nM	259 nM		
CO[C@@]1(CCCO)/C=C/C[C@H](C)[C@@H](C)S(=O)(=O)NC(=O)c2ccc3c(c2)N(C[C@@H]2CC[C@H]21)C[C@@]1(CCCc2cc(Cl)ccc21)CO3 [Example 100178, (1S,3′R,6′R,7′S,8′E,11′S,12′R)-6-chloro-7′-(3-hydroxypropyl)-7′-methoxy-11′,12′-dimethyl-3,4-dihydro-2H,15′H-spiro[naphthalene-1,22′-[20]oxa[13]thia[1,14]diazatetracyclo [14.7.2.0~3,6~.0~19,24~]pentacosa[8,16,18,24]tetraen]-15′-one 13′,13′-dioxide]	0.432 nM		237 nM	
C[C@@H]1[C@@H](C)C/C=C/[C@](O)(c2ccccn2)[C@@H]2CC[C@H]2CN2C[C@@]3(CCCc4cc(Cl)ccc43)COc3ccc(cc32)C(=O)NS1(=O)=O [Example 100180, (1S,3′R,6′R,7′R,8′E,11′S,12′R)-6-chloro-7′-hydroxy-11′,12′-dimethyl-7′-(2-pyridinyl)-3,4-dihydro-2H,15′H-spiro[naphthalene-1,22′-[20]oxa[13]thia[1,14]diazatetracyclo [14.7.2.0~3,6~.0~19,24~]pentacosa[8,16,18,24]tetraen]-15′-one 13′,13′-dioxide]	4.92 nM	4420 nM		
C[C@@H]1[C@@H](C)C/C=C/[C@@](C)(O)[C@@H]2CC[C@H]2CN2C[C@@]3(CCCc4cc(Cl)ccc43)COc3ccc(cc32)C(=O)NS1(=O)=O [Example 100182, (1S,3′R,6′R,7′R,8′E,11′S,12′R)-6-chloro-7′-hydroxy-7′,11′,12′-trimethyl-3,4-dihydro-2H,15′H-spiro[naphthalene-1,22′-[20]oxa[13]thia[1,14]diazatetracyclo [14.7.2.0~3,6~.0~19,24~]pentacosa[8,16,18,24]tetraen]-15′-one 13′,13′-dioxide]		827 nM		0.863 nM
C[C@@H]1[C@@H](C)CCC[C@@](O)(c2cccnc2)[C@@H]2CC[C@H]2CN2C[C@@]3(CCCc4cc(Cl)ccc43)COc3ccc(cc32)C(=O)NS1(=O)=O [Example 100185, (1S,3′R,6′R,7′S,11′S,12′R)-6-chloro-7′-hydroxy-11′,12′-dimethyl-7′-(3-pyridinyl)-3,4-dihydro-2H,15′H-spiro[naphthalene-1,22′-[20]oxa[13]thia[1,14]diazatetracyclo [14.7.2.0~3,6~.0~19,24~]pentacosa[16,18,24]trien]-15′-one 13′,13′-dioxide]		5130 nM		8.88 nM
C[C@@H]1[C@@H](C)C/C=C/[C@](O)(c2nccn2C)[C@@H]2CC[C@H]2CN2C[C@@]3(CCCc4cc(Cl)ccc43)COc3ccc(cc32)C(=O)NS1(=O)=O [Example 100186, (1S,3′R,6′R,7′R,8′E,11′S,12′R)-6-chloro-7′-hydroxy-11′,12′-dimethyl-7′-(1-methyl-1H-imidazol-2-yl)-3,4-dihydro-2H,15′H-spiro[naphthalene-1,22′-[20]oxa[13]thia[1,14]diazatetracyclo [14.7.2.0~3,6~.0~19,24~]pentacosa[8,16,18,24]tetraen]-15′-one 13′,13′-dioxide]	0.377 nM	312 nM		
